Entries after “also recorded” stand apart in the source; their conditions may differ. No end group written: not given here.
What was measured:
[1] = system: MLH1 variant p.Arg385Pro and PMS2; assay: MMR complementation assay with peptide, MLH1 p.Arg385Pro variant; type: biochemical, human; conditions: ConMot-32 at 0, 7.5, 18 and 75 μM
Protocol: (§1) Mismatch repair activity was assessed as described in detail before ([79],[81]) (Supplementary Figure S3). […] Mismatched DNA plasmid substrate (Supplementary Figure S3) prepared according to previously published procedures ([81–83]) was added, and reactions in a final volume of 25 μl were incubated at 37°C for 15 min. Repair efficiency was scored by purifying the mismatched DNA plasmid from the reaction and assessing the fraction of homoduplex sequence by restriction digestion of the mismatched site using EcoRV. The substrate was additionally linearized with AseI.
For complementation assays with peptide, the indicated peptide(s) were used at stock concentrations of 50 or 500 μM in HEPES–KOH 20 mM pH 7.6 and supplemented to the MMR reactions.
In an identical way, we analyzed the effects of the ConMot peptide on MMR activity of the defective human MLH1 missense variant p.Arg385Pro (Figure 5).
Figure 5. […] Several MMR assays were performed; a representative agarose gel is shown (top), and average MMR activity values and standard deviations of three independent experiments were calculated (bottom). […]
In parallel, the single- strand nick is ligated. […] 40- 80% absolute repair, determined as signal intensities of the repair bands divided by sum of signal intensities of all plasmid bands, are optimally achieved and allow accurate determination of MMR activity of variants. […]

[2] = system: DNA mismatch repair reaction of MMR-proficient HEK293 cell extract; assay: MMR competition test with nuclear extract of MMR-proficient HEK293 cells; type: biochemical, human; conditions: up to 75 μM ConMot-32 peptide
Protocol: as §1
For complementation assays with peptide, the indicated peptide(s) were used at stock concentrations of 50 or 500 μM in HEPES–KOH 20 mM pH 7.6 and supplemented to the MMR reactions. […]
Figure 4. […] (C) The concentration-dependence of the MMR-activating effect of the ConMot-32 peptide observed in (B) was measured over a concentration range from 1–75 μM. […] Into this diagram, the average MMR activities (and standard deviations) measured in >3 of the experiment exemplarily shown in C were introduced as bars at ConMot-32 peptide concentrations of 1, 2.5, 7.5, 18 and 75 μM. […]
In parallel, the single- strand nick is ligated. […] 40- 80% absolute repair, determined as signal intensities of the repair bands divided by sum of […]

## SGSSDKVYAHQMVRTDSREQKLDAFLQPLSKP [ConMot-32]
[1]
  peptide concentrations required for restoration of p.Arg385Pro variant, compared with ConMot-deletion variant: identical peptide concentrations as with the ConMot-deletion variant
[1]; 37°C, 15 min, average of three independent experiments, listed as ConMot peptide
  restoration of DNA mismatch repair activity of the p.Arg385Pro variant: Restoration of MMR activity was again observed; also recorded: could be overcome
[2]; listed as ConMot peptide
  interference with regular DNA mismatch repair: did not detectably interfere
[2]; listed as ConMot-peptide
  interference with regular DNA mismatch repair: not attenuated
